Test results: ChEMBL document CHEMBL3877252, “Fluorescein hydrazones: A series of novel non-intercalative topoisomerase IIα catalytic inhibitors induce G1 arrest and apoptosis in breast and colon cancer cells” (Eur J Med Chem, 2017)
Active and inactive are the calls of the source. No cut-off for these calls is given here.

Legend:
[1] = Cell cycle arrest in human HCT15 cells assessed as accumulation at G2/M phase at 10 uM after 5 hrs by DAPI staining-based cell analyzer (reference value: 13%); type: functional; conditions: HCT-15
[2] = Cell cycle arrest in human HCT15 cells assessed as accumulation at S phase at 10 uM after 15 hrs by DAPI staining-based cell analyzer (reference value: 10%); type: functional; conditions: HCT-15
[3] = target: DNA topoisomerase 2-alpha (Homo sapiens) (UniProt P11388); experiment: Poison activity at topoisomerase-2 alpha in human HCT15 cells assessed as DNA damage by measuring DNA tail length at 5 uM measured after 24 hrs by alkaline comet assay; type: cell-based; conditions: HCT-15
DNA topoisomerase 2-alpha (Homo sapiens), sequence (P11388 whole entry): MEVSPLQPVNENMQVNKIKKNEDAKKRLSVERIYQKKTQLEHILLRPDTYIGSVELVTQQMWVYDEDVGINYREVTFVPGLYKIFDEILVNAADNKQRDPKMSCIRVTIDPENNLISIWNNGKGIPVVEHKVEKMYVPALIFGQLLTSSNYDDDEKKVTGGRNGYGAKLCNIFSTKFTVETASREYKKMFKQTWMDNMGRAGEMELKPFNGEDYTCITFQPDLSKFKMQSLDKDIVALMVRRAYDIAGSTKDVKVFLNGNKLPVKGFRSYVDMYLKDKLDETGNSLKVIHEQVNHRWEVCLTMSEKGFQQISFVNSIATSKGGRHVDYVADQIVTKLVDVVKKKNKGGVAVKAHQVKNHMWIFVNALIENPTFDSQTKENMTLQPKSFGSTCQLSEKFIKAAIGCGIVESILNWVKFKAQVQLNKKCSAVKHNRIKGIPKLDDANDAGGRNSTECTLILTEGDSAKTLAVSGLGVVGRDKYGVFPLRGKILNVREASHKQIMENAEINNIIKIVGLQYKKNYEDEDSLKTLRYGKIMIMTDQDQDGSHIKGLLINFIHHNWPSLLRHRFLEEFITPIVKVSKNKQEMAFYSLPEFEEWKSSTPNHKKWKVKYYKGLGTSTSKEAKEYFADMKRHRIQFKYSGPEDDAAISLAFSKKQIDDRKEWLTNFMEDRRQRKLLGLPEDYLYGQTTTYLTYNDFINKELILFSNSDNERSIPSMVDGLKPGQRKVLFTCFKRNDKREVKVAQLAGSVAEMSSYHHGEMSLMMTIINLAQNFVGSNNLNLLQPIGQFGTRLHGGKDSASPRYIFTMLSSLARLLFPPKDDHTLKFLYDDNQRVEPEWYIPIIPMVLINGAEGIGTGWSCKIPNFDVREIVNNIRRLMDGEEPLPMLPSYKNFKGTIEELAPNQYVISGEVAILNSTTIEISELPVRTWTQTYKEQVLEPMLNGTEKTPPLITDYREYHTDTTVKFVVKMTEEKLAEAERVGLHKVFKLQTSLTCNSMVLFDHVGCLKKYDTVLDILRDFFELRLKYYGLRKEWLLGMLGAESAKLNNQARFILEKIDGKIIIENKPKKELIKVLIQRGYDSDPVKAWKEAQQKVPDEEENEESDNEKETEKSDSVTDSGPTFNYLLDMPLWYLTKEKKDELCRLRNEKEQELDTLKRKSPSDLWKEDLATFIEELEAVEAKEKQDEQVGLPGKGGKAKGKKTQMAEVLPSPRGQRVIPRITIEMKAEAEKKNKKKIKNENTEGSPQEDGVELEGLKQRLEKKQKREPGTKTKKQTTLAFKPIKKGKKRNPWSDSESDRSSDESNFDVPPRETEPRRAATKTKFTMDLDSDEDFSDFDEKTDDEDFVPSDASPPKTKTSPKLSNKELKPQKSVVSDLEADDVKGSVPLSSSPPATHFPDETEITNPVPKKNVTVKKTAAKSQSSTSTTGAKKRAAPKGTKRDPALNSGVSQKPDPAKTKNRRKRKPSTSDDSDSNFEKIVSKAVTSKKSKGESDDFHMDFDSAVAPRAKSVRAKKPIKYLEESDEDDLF

[4] = Cell cycle arrest in human HCT15 cells assessed as accumulation at S phase at 3 uM after 20 hrs by DAPI staining-based cell analyzer (reference value: 34%); type: functional; conditions: HCT-15
[5] = Antiproliferative activity against human DU145 cells measured after 72 hrs by CCK8 assay; type: functional, cell-based; conditions: DU-145, 72 h
[6] = Cell cycle arrest in human HCT15 cells assessed as accumulation at G1 phase at 10 uM after 10 hrs by DAPI staining-based cell analyzer (reference value: 61%); type: functional; conditions: HCT-15
[7] = Cell cycle arrest in human HCT15 cells assessed as accumulation at S phase at 10 uM after 10 hrs by DAPI staining-based cell analyzer (reference value: 10%); type: functional; conditions: HCT-15
[8] = Cell cycle arrest in human HCT15 cells assessed as accumulation at G1 phase at 1 uM after 20 hrs by DAPI staining-based cell analyzer (reference value: 40%); type: functional; conditions: HCT-15
[9] = Cell cycle arrest in human HCT15 cells assessed as increase in p27kip1 level at 10 uM; type: functional, cell-based; conditions: HCT-15, TDE = time-dependent effect
[10] = Cell cycle arrest in human HCT15 cells assessed as accumulation at S phase at 10 uM after 20 hrs by DAPI staining-based cell analyzer (reference value: 34%); type: functional; conditions: HCT-15
[11] = Cell cycle arrest in human HCT15 cells assessed as accumulation at G2/M phase at 10 uM after 20 hrs by DAPI staining-based cell analyzer (reference value: 13%); type: functional; conditions: HCT-15
[12] = Antiproliferative activity against human HCT15 cells measured after 72 hrs by CCK8 assay; type: functional, cell-based; conditions: HCT-15, 72 h
[13] = target: DNA topoisomerase 2-alpha (Homo sapiens) (UniProt P11388); experiment: Inhibition of human topoisomerase-2 alpha assessed as inhibition of relaxation of supercoiled pBR322 plasmid DNA at 20 uM measured after 1 hr by ethidium bromide staining based agarose gel electrophoresis relative to control
[14] = Cell cycle arrest in human HCT15 cells assessed as accumulation at G2/M phase at 10 uM after 15 hrs by DAPI staining-based cell analyzer (reference value: 13%); type: functional; conditions: HCT-15
HCT-15 [15] = experiment: Induction of apoptosis in human HCT15 cells assessed as increase in cleaved PARP level measured after 24 hrs by Western blot analysis; type: functional, cell-based
[16] = target: DNA topoisomerase 2-alpha (Homo sapiens) (UniProt P11388); experiment: Inhibition of human topoisomerase-2 alpha assessed as inhibition of relaxation of supercoiled pBR322 plasmid DNA at 100 uM measured after 1 hr by ethidium bromide staining based agarose gel electrophoresis relative to control
[17] = Cell cycle arrest in human HCT15 cells assessed as increase in p27kip1 level measured after 20 hrs; type: functional, cell-based; conditions: HCT-15
[18] = Antiproliferative activity against human T47D cells measured after 72 hrs by CCK8 assay; type: functional, cell-based
[19] = Cell cycle arrest in human HCT15 cells assessed as accumulation at S phase at 10 uM after 20 hrs by DAPI staining-based cell analyzer (reference value: 10%); type: functional; conditions: HCT-15
[20] = Cell cycle arrest in human HCT15 cells assessed as decrease in cyclin D1 level at 10 uM; type: functional, cell-based; conditions: HCT-15, TDE = time-dependent effect
[21] = Cell cycle arrest in human HCT15 cells assessed as accumulation at G1 phase at 10 uM by DAPI staining based cell analyzer; type: functional; conditions: HCT-15, TDE = time-dependent effect
[22] = target: DNA topoisomerase 2-alpha (Homo sapiens) (UniProt P11388); experiment: Poison activity at topoisomerase-2 alpha in human HCT15 cells assessed as DNA damage by measuring DNA tail length at 10 uM measured after 24 hrs by alkaline comet assay; type: cell-based; conditions: HCT-15
HCT-15 [23] = experiment: Induction of apoptosis in human HCT15 cells assessed as decrease in bcl-2 level measured after 24 hrs by Western blot analysis; type: functional, cell-based
[24] = target: T1, DNA topoisomerase 1 (Homo sapiens) (UniProt P11387); experiment: Inhibition of human topoisomerase-1 assessed as inhibition of relaxation of supercoiled pBR322 plasmid DNA at 100 uM measured after 1 hr by ethidium bromide staining based agarose gel electrophoresis relative to control
T1 sequence (whole entry): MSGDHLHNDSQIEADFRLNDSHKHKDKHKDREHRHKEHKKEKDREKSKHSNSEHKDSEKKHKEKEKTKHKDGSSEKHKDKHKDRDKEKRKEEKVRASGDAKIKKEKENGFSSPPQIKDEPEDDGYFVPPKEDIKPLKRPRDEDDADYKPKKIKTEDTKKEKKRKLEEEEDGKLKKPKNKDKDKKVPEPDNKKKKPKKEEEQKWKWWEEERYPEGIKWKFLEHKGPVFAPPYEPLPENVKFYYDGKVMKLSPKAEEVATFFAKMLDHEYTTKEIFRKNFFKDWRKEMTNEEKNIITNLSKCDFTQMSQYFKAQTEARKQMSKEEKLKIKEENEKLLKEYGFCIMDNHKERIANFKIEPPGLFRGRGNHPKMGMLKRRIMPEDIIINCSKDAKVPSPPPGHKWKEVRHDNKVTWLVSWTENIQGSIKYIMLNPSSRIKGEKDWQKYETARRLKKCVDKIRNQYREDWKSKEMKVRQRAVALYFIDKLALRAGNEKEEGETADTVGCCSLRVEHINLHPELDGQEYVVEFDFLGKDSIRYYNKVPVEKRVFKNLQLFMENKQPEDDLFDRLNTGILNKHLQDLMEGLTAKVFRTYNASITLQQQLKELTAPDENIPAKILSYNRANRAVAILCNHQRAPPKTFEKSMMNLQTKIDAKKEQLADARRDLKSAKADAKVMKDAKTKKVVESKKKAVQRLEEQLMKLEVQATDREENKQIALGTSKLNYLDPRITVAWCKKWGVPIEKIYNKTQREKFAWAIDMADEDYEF

[25] = Cell cycle arrest in human HCT15 cells assessed as accumulation at G1 phase at 10 uM after 20 hrs by DAPI staining-based cell analyzer (reference value: 61%); type: functional; conditions: HCT-15
[26] = Cell cycle arrest in human HCT15 cells assessed as accumulation at G2/M phase at 1 uM after 20 hrs by DAPI staining-based cell analyzer (reference value: 13%); type: functional; conditions: HCT-15
[27] = Cell cycle arrest in human HCT15 cells assessed as accumulation at G2/M phase at 10 uM after 10 hrs by DAPI staining-based cell analyzer (reference value: 13%); type: functional; conditions: HCT-15
[28] = Cell cycle arrest in human HCT15 cells assessed as accumulation at G1 phase at 3 uM after 20 hrs by DAPI staining-based cell analyzer (reference value: 40%); type: functional; conditions: HCT-15
[29] = Cell cycle arrest in human HCT15 cells assessed as decrease in cyclin D1 level measured after 20 hrs; type: functional, cell-based; conditions: HCT-15
[30] = Cell cycle arrest in human HCT15 cells assessed as accumulation at S phase at 1 uM after 20 hrs by DAPI staining-based cell analyzer (reference value: 34%); type: functional; conditions: HCT-15
[31] = Cell cycle arrest in human HCT15 cells assessed as accumulation at G2/M phase at 3 uM after 20 hrs by DAPI staining-based cell analyzer (reference value: 13%); type: functional; conditions: HCT-15
[32] = Cell cycle arrest in human HCT15 cells assessed as accumulation at G1 phase at 10 uM after 20 hrs by DAPI staining-based cell analyzer (reference value: 40%); type: functional; conditions: HCT-15
[33] = Antiproliferative activity against human MCF7 cells measured after 72 hrs by CCK8 assay; type: functional, cell-based; conditions: MCF7, 72 h
[34] = Cell cycle arrest in human HCT15 cells assessed as accumulation at G1 phase at 10 uM after 15 hrs by DAPI staining-based cell analyzer (reference value: 61%); type: functional; conditions: HCT-15
[35] = Cell cycle arrest in human HCT15 cells assessed as accumulation at G1 phase at 10 uM after 5 hrs by DAPI staining-based cell analyzer (reference value: 61%); type: functional; conditions: HCT-15
[36] = Cell cycle arrest in human HCT15 cells assessed as accumulation at S phase at 10 uM after 5 hrs by DAPI staining-based cell analyzer (reference value: 10%); type: functional; conditions: HCT-15
HCT-15 [37] = experiment: Induction of apoptosis in human HCT15 cells assessed as increase in bax level measured after 24 hrs by Western blot analysis; type: functional, cell-based
[38] = target: DNA topoisomerase 2-alpha (Homo sapiens) (UniProt P11388); experiment: Inhibition of topoisomerase-2 alpha catalytic activity in human HCT15 cells assessed as appearance of free protein band at 50 uM measured after 2 hrs by Western blot analysis; type: cell-based; conditions: HCT-15
[39] = target: T1, DNA topoisomerase 1 (Homo sapiens); experiment: Inhibition of human topoisomerase-1 assessed as inhibition of relaxation of supercoiled pBR322 plasmid DNA at 20 uM measured after 1 hr by ethidium bromide staining based agarose gel electrophoresis relative to control
[40] = Cell cycle arrest in human T47D cells assessed as accumulation at G1 phase at 0.5 uM after 24 hrs by DAPI staining-based cell analyzer (reference value: 51%); type: functional
[41] = Cell cycle arrest in human HCT15 cells assessed as accumulation at G1 phase at 0.5 uM after 20 hrs by DAPI staining-based cell analyzer (reference value: 40%); type: functional; conditions: HCT-15
[42] = Cell cycle arrest in human HCT15 cells assessed as accumulation at G2/M phase after 20 hrs by DAPI staining-based cell analyzer; type: functional; conditions: HCT-15
[43] = Cell cycle arrest in human T47D cells assessed as accumulation at G2/M phase at 1 uM after 24 hrs by DAPI staining-based cell analyzer (reference value: 15%); type: functional
[44] = Cell cycle arrest in human T47D cells assessed as accumulation at S phase at 0.5 uM after 24 hrs by DAPI staining-based cell analyzer (reference value: 26%); type: functional
[45] = Cell cycle arrest in human T47D cells assessed as accumulation at G2/M phase after 24 hrs by DAPI staining-based cell analyzer; type: functional
[46] = Cell cycle arrest in human HCT15 cells assessed as accumulation at S phase at 0.5 uM after 20 hrs by DAPI staining-based cell analyzer (reference value: 34%); type: functional; conditions: HCT-15
[47] = Cell cycle arrest in human T47D cells assessed as accumulation at G1 phase at 1 uM after 24 hrs by DAPI staining-based cell analyzer (reference value: 51%); type: functional
[48] = target: DNA topoisomerase 2-alpha (Homo sapiens) (UniProt P11388); experiment: Poison activity at topoisomerase-2 alpha in human T47D cells assessed as DNA damage by measuring DNA tail length at 10 uM measured after 24 hrs by alkaline comet assay; type: cell-based
[49] = target: DNA topoisomerase 2-alpha (Homo sapiens) (UniProt P11388); experiment: Poison activity at topoisomerase-2 alpha in human T47D cells assessed as DNA damage by measuring DNA tail length at 5 uM measured after 24 hrs by alkaline comet assay; type: cell-based
[50] = Cell cycle arrest in human HCT15 cells assessed as accumulation at G2/M phase at 0.5 uM after 20 hrs by DAPI staining-based cell analyzer (reference value: 13%); type: functional; conditions: HCT-15
[51] = Cell cycle arrest in human T47D cells assessed as accumulation at G2/M phase at 0.5 uM after 24 hrs by DAPI staining-based cell analyzer (reference value: 13%); type: functional
[52] = Cell cycle arrest in human T47D cells assessed as accumulation at S phase at 1 uM after 24 hrs by DAPI staining-based cell analyzer (reference value: 26%); type: functional

CCOc1ccc2c(c1)Oc1cc(O)ccc1C21c2ccccc2C(=O)N1/N=C/c1ccccc1[N+](=O)[O-] (stereo unspecified)
Activity [1]: 11%
Activity [2]: 8%
Activity [3]: 7.72 pixel
Activity [4]: 24%
IC50 [5]: 1430 nM
Activity [6]: 67%
Activity [7]: 8%
Activity [8]: 45%
Activity [9]: Tde
Activity [10]: 20%
Activity [11]: 11 to 12%
IC50 [12]: 2400 nM
inhibition [13]: 52.7%
Activity [14]: 11%
Activity (HCT-15 [15]): Dose-dependent effect
inhibition [16]: 62.4%
Activity [17]: Dose-dependent effect
IC50 [18]: > 50000 nM
Activity [19]: 7%
Activity [20]: Tde
Activity [21]: Tde
Activity [22]: 8.29 pixel
Activity (HCT-15 [23]): Dose-dependent effect
inhibition [24]: 35.6%
Activity [25]: 70%
Activity [26]: 14%
Activity [27]: 12%
Activity [28]: 48%
Activity [29]: Dose-dependent effect
Activity [30]: 28%
Activity [31]: 11%
Activity [32]: 55%
IC50 [33]: 11400 nM
Activity [34]: 68%
Activity [35]: 64%
Activity [36]: 8%
Activity (HCT-15 [37]): Dose-dependent effect
inhibition [38]: Active
inhibition [39]: 14.8%

COc1cc([C@@H]2c3cc4c(cc3[C@@H](O[C@@H]3O[C@@H]5CO[C@@H](C)O[C@H]5[C@H](O)[C@H]3O)[C@H]3COC(=O)[C@H]23)OCO4)cc(OC)c1O [ETOPOSIDE]
Activity [3]: 37.5 pixel
Activity [40]: 39%
IC50 [5]: 2190 nM
Activity [41]: 21%
Activity [8]: 17%
IC50 [12]: 1270 nM
Activity [42]: Dose-dependent effect
Activity [43]: 33%
IC50 [18]: 4850 nM
Activity [44]: 24%
Activity [22]: 46.3 pixel
Activity [45]: Dose-dependent effect
Activity [46]: 26%
Activity [26]: 32%
Activity [47]: 35%
Activity [48]: 66.2 pixel
Activity [30]: 25%
IC50 [33]: 35600 nM
Activity [49]: 62.7 pixel
Activity [50]: 29%
Activity [51]: 31%
Activity [52]: 22%
